Article PMC3905653, “Characterization of two transketolases encoded on the chromosome and the plasmid pBM19 of the facultative ribulose monophosphate cycle methylotroph Bacillus methanolicus” (BMC Microbiology, 2014)

What was measured:
TKT^C = target: T1, TKT^C (Bacillus methanolicus, UniProt I3DZN5); assay: inhibition in coupled assay I; format: biochemical; conditions: effector tested at 1 and 5 mM, which one gave the value is not told; R5-P and X5-P, pH 7.5, Mn2+
T1 construct: gene tktC; full length, chromosomal gene; pET16b N-terminal His10 tag cut by factor Xa; E. coli BL21(DE3); 73 kDa, homotetramer 280 kDa; primers tktC encode start TTG-TTT-GAT-AAA-ATT-GAC-CAT (MFDKIDH) and C-terminal ALLKQ
T1 sequence (I3DZN5 entry or part of it): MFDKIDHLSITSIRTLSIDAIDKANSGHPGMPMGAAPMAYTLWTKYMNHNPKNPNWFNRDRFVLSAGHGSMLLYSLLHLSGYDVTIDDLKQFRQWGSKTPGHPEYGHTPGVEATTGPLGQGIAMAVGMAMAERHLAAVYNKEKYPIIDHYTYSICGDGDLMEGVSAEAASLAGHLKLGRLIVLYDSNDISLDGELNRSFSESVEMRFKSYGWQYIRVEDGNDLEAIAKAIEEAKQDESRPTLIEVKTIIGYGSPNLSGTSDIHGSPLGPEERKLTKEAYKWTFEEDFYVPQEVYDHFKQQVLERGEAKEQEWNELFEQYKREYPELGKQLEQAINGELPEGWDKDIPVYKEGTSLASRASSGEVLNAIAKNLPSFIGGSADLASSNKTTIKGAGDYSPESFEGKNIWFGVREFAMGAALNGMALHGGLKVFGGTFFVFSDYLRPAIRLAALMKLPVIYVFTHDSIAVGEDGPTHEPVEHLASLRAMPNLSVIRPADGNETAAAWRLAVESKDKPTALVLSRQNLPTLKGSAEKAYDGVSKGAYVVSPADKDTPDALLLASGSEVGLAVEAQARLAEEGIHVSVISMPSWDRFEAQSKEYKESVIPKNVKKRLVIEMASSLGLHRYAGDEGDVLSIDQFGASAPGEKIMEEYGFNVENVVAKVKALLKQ

TKT^P = target: T2, TKT^P (Bacillus methanolicus, UniProt Q6TV44); assay: inhibition in coupled assay I; format: biochemical; conditions: effector tested at 1 and 5 mM, which one gave the value is not told; R5-P and X5-P, pH 7.5, Mn2+
T2 construct: gene tktP; full length, plasmid pBM19 gene; pET16b N-terminal His10 tag cut by factor Xa; E. coli BL21(DE3); 73 kDa, homotetramer 280 kDa
T2 sequence (Q6TV44 entry or part of it): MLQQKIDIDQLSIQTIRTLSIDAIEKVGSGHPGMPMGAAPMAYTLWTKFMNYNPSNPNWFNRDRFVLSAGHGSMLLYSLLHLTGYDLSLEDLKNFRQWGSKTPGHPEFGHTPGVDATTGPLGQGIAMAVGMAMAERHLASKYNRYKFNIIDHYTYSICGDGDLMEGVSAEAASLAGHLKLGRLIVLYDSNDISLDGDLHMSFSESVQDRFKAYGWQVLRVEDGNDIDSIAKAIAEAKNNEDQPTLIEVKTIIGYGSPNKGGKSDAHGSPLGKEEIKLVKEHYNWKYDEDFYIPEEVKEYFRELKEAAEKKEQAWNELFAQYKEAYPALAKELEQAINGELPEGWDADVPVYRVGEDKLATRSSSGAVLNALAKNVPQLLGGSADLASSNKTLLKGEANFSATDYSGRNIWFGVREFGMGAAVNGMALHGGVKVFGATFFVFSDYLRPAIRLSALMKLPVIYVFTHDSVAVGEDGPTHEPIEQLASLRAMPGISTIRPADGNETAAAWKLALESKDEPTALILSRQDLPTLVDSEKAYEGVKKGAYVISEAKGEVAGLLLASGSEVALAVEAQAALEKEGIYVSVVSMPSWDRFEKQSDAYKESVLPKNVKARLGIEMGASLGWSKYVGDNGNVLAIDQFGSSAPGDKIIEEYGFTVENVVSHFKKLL

SMILES	% inhibition (TKT^C)	% inhibition (TKT^P)
Nc1ncnc2c1ncn2[C@@H]1O[C@H](COP(=O)(O)OP(=O)(O)O)[C@@H](O)[C@H]1O [ADP]	95%	65%
Nc1ncnc2c1ncn2[C@@H]1O[C@H](COP(=O)(O)OP(=O)(O)OP(=O)(O)O)[C@@H](O)[C@H]1O [ATP]	75%	65%
